Publication PMC7917093, “Multiomics-based dissection of citrus flavonoid metabolism using a Citrus reticulata × Poncirus trifoliata population” (Horticulture Research, 2021)

What was measured:
[1] = test system: T1, CitF3H (P. trifoliata allele); test: LC-MS product assay, Michaelis-Menten fit; type: biochemical, Citrus trifoliata; settings: 0-1000 μM naringenin; 2-oxoglutarate 10 mM, FeSO4 0.25 mM, ascorbate 10 mM; Tris-HCl pH 8.5; 35 °C
T1 construct: gene F3H; natural allele with five amino acid differences and one indel versus C. reticulata

[2] = test system: T2, CitF3H (C. reticulata allele); test: LC-MS product assay, Michaelis-Menten fit; type: biochemical, Citrus reticulata; settings: 0-1000 μM naringenin; 2-oxoglutarate 10 mM, FeSO4 0.25 mM, ascorbate 10 mM; Tris-HCl pH 8.5; 35 °C
T2 construct: gene F3H

For `O=C1C[C@@H](c2ccc(O)cc2)Oc2cc(O)cc(O)c21` [naringenin], the Km [1] was 7.61 µM and the Km [2] was 121 µM.
